Results reported in patent US6706757B2, “Chroman derivatives as 5-hydroxytryptamine-6 ligands” (Wyeth, priority 2001, dated 2004).
Where a name gives a salt, the structure may show the parent alone.

System: not given
Test: not given
Conditions: not given

Compound | melting point
C[C@@H](NCC1CCc2ccc(N(C)S(=O)(=O)c3ccccc3Br)cc2O1)c1ccccc1 (stereo partly drawn) (as salt: HCl) [Example 51, 2-bromo-N-methyl-N-[2-({[(1R)-1-phenylethyl]amino}methyl)-3,4-dihydro-2H-chromen-7-yl]benzenesulfonamide] | 199 to 201 °C
C[C@@H](NCC1CCc2ccc(N(C)S(=O)(=O)c3ccc(F)cc3)cc2O1)c1ccccc1 (stereo partly drawn) (as salt: HCl) [Example 52, 4-fluoro-N-methyl-N-[2-({[(1R)-1-phenylethyl]amino}methyl)-3,4-dihydro-2H-chromen-7-yl]benzenesulfonamide] | 208 to 210 °C
C[C@@H](NCC1CCc2ccc(N(C)S(=O)(=O)c3ccc(Cl)cc3)cc2O1)c1ccccc1 (stereo partly drawn) (as salt: HCl) [Example 53, 4-chloro-N-methyl-N-[2-({[(1R)-1-phenylethyl]amino}methyl)-3,4-dihydro-2H-chromen-7-yl]benzenesulfonamide] | 198 to 201 °C
COc1ccc(S(=O)(=O)N(C)c2ccc3c(c2)OC(CN[C@H](C)c2ccccc2)CC3)cc1OC (stereo partly drawn) (as salt: HCl) [Example 54, 3,4-dimethoxy-N-methyl-N-[2-({[(1R)-1-phenylethyl]amino}methyl)-3,4-dihydro-2H-chromen-7-yl]benzenesulfonamide] | 229 to 230 °C
C[C@@H](NCC1CCc2ccc(N(C)S(=O)(=O)c3cccc4ccccc34)cc2O1)c1ccccc1 (stereo partly drawn) (as salt: HCl) [Example 55, N-methyl-N-[2-({[(1R)-1-phenylethyl]amino}methyl)-3,4-dihydro-2H-chromen-7-yl]naphthalene-1-sulfonamide] | 245 to 246 °C
C[C@@H](NCC1CCc2ccc(N(C)S(=O)(=O)c3ccc(N)cc3)cc2O1)c1ccccc1 (stereo partly drawn) (as salt: HCl) [Example 56, 4-amino-N-methyl-N-[2-({[(1R)-1-phenylethyl]amino}methyl)-3,4-dihydro-2H-chromen-7-yl]benzenesulfonamide] | 200 °C (dec.)

Target: T1, human cloned 5-HT6 receptors (Homo sapiens, UniProt P50406)
T1 construct: expressed in transfected cells; host or cells: HeLa cells (membrane preparation)
T1 sequence (P50406 whole entry): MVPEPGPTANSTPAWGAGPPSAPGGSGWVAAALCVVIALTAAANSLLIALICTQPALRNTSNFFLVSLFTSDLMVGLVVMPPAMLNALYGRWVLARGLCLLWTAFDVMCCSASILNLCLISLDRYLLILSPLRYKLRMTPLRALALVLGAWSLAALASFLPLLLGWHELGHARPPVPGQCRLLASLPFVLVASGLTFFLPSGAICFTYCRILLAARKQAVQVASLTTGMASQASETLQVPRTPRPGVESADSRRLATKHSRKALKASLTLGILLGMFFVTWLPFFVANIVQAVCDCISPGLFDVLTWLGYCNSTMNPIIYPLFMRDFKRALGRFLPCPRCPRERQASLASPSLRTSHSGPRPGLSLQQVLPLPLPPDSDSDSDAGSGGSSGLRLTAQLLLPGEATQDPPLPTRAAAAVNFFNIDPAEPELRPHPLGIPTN
Test: 5-HT6 binding affinity, [3H]-LSD displacement on membranes of Hela cells expressing human cloned 5-HT6 receptors
Conditions: [3H]-LSD 3.0 nM, Hela cell membranes, 120 min at room temperature
Method: The affinity of test compounds for the serotonin 5-HT6 receptor is evaluated in the following manner. Cultured Hela cells expressing human cloned 5-HT6 receptors are harvested and centrifuged at low speed (1,000×g) for 10.0 min to remove the culture media. The harvested cells are suspended in half volume of fresh physiological phosphate buffered saline solution and recentrifuged at the same speed. This operation is repeated. The collected cells are then homogenized in ten volumes of 50 mM Tris.HCl (pH 7.4) and 0.5 mM EDTA. The homogenate is centrifuged at 40,000×g for 30.0 min and the precipitate is collected. The obtained pellet is resuspended in 10 volumes of Tris.HCl buffer and recentrifuged at the same speed. The final pellet is suspended in a small volume of Tris.HCl buffer and the tissue protein content is determined in aliquots of 10-25 μl volumes. Bovine Serum Albumin is used as the standard in the protein determination according to the method described in Lowry et al., J. Biol. Chem., 193:265 (1951). The volume of the suspended cell membranes is adjusted to give a tissue protein concentration of 1.0 mg/ml of suspension. The prepared membrane suspension (10 times concentrated) is aliquoted in 1.0 ml volumes and stored at −70° C. until used in subsequent binding experiments.
Binding experiments are performed in a 96 well microtiter plate format, in a total volume of 200 μl. […] The test compounds are added in 20.0 μl volume.
The reaction is allowed to proceed in the dark for 120 min at room temperature, at which time, the bound ligand-receptor complex is filtered off on a 96 well unifilter with a Packard Filtermate® 196 Harvester. The bound complex caught on the filter disk is allowed to air dry and the radioactivity is measured in a Packard TopCount® equipped with six photomultiplier detectors, after the addition of 40.0 μl Microscint®-20 scintillant to each shallow well. The unifilter plate is heat-sealed and counted in a PackardTopCount® with a tritium efficiency of 31.0%.
Binding in the presence of varying concentrations of test compound is expressed as a percentage of specific binding in the absence of test compound. The results are plotted as log % bound versus log concentration of test compound. […] A linear regression line of data points is plotted, from which the IC50 value is determined and the Ki value is determined based upon the following equation: […]
where L is the concentration of the radioactive ligand used and KD is the dissociation constant of the ligand for the receptor, both expressed in nM.

Compound | Ki
Cc1ccc(S(=O)(=O)Nc2ccc3c(c2)OC(CN[C@H](C)c2ccccc2)CC3)cc1 (stereo partly drawn) [Example 37, 4-methyl-N-[2-({[(1R)-1-phenylethyl]amino}methyl)-3,4-dihydro-2H-chromen-7-yl]benzenesulfonamide] | 16 nM
C[C@@H](NCC1CCc2ccc(NS(=O)(=O)c3ccc(Cl)cc3)cc2O1)c1ccccc1 (stereo partly drawn) [Example 38, 4-chloro-N-[2-({[(1R)-1-phenylethyl]amino}methyl)-3,4-dihydro-2H-chromen-7-yl]benzenesulfonamide] | 5 nM
COc1ccc(S(=O)(=O)Nc2ccc3c(c2)OC(CN[C@H](C)c2ccccc2)CC3)cc1 (stereo partly drawn) [Example 39, 4-methoxy-N-[2-({[(1R)-1-phenylethyl]amino}methyl)-3,4-dihydro-2H-chromen-7-yl]benzenesulfonamide] | 10 nM
C[C@@H](NCC1CCc2ccc(NS(=O)(=O)c3ccc(OC(F)(F)F)cc3)cc2O1)c1ccccc1 (stereo partly drawn) [Example 40, N-[2-({[(1R)-1-phenylethyl]amino}methyl)-3,4-dihydro-2H-chromen-7-yl]-4-(trifluoromethoxy)benzenesulfonamide] | 11 nM
C[C@@H](NCC1CCc2ccc(NS(=O)(=O)c3cccc4ccccc34)cc2O1)c1ccccc1 (stereo partly drawn) [Example 41, N-[2-({[(1R)-1-phenylethyl]amino}methyl)-3,4-dihydro-2H-chromen-7-yl]naphthalene-1-sulfonamide] | 4 nM
C[C@@H](NCC1CCc2ccc(NS(=O)(=O)c3ccc(Cl)s3)cc2O1)c1ccccc1 (stereo partly drawn) [Example 42, 5-chloro-N-[2-({[(1R)-1-phenylethyl]amino}methyl)-3,4-dihydro-2H-chromen-7-yl]thiophene-2-sulfonamide] | 2 nM
C[C@@H](NCC1CCc2ccc(NS(=O)(=O)c3ccc(C(F)(F)F)cc3)cc2O1)c1ccccc1 (stereo partly drawn) [Example 43, N-[2-({[(1R)-1-phenylethyl]amino}methyl)-3,4-dihydro-2H-chromen-7-yl]-4-(trifluoromethyl)benzenesulfonamide] | 6 nM
C[C@@H](NCC1CCc2ccc(NS(=O)(=O)c3ccc(N)cc3)cc2O1)c1ccccc1 (stereo partly drawn) [Example 44, 4-amino-N-[2-({[(1R)-1-phenylethyl]amino}methyl)-3,4-dihydro-2H-chromen-7-yl]benzenesulfonamide] | 1 nM
C[C@@H](NC[C@H]1CCc2ccc(NS(=O)(=O)c3ccccc3)cc2O1)c1ccccc1 [Example 45A] | 1 nM
C[C@@H](NC[C@@H]1CCc2ccc(NS(=O)(=O)c3ccccc3)cc2O1)c1ccccc1 [Example 45B, N[(2S)-2-({[(1R)-1-Phenylethyl]amino}methyl)-3,4-dihydro-2H-chromen-7-yl]phenylsulfonamide] | 17 nM
C[C@@H](NC[C@H]1CCc2ccc(NS(=O)(=O)c3cccc4ccccc34)cc2O1)c1ccccc1 [Example 46A, N-[(2R)-2-({[(1R)-1-phenylethyl]amino}-methyl)-3,4-dihydro-2H-chromen-7-yl)naphthalene-1-sulfonamide Hydrochloride] | 37 nM
C[C@@H](NC[C@@H]1CCc2ccc(NS(=O)(=O)c3cccc4ccccc34)cc2O1)c1ccccc1 [Example 46B, N-[(2S)-2({[(1R)-1-phenylethyl]amino}methyl)-3,4-dihydro-2H-chromen-7-yl]naphthalene-1-sulfonamide Hydrochloride] | 2 nM
C[C@@H](NC[C@@H]1CCc2ccc(NS(=O)(=O)c3ccc(N)cc3)cc2O1)c1ccccc1 [Example 47B, 4-Amino-N-[(2S)-2-({[(1R)-1-phenylethyl]amino}methyl)-3,4-dihydro-2H-chromen-7-yl]benezenesulfonamide Hydrochloride] | 11 nM
C[C@@H](NCC1CCc2ccc(N(C)S(=O)(=O)c3ccccc3Br)cc2O1)c1ccccc1 (stereo partly drawn) [Example 51, 2-bromo-N-methyl-N-[2-({[(1R)-1-phenylethyl]amino}methyl)-3,4-dihydro-2H-chromen-7-yl]benzenesulfonamide] | 3 nM
C[C@@H](NCC1CCc2ccc(N(C)S(=O)(=O)c3ccc(F)cc3)cc2O1)c1ccccc1 (stereo partly drawn) [Example 52, 4-fluoro-N-methyl-N-[2-({[(1R)-1-phenylethyl]amino}methyl)-3,4-dihydro-2H-chromen-7-yl]benzenesulfonamide] | 7 nM
C[C@@H](NCC1CCc2ccc(N(C)S(=O)(=O)c3ccc(Cl)cc3)cc2O1)c1ccccc1 (stereo partly drawn) [Example 53, 4-chloro-N-methyl-N-[2-({[(1R)-1-phenylethyl]amino}methyl)-3,4-dihydro-2H-chromen-7-yl]benzenesulfonamide] | 5 nM
COc1ccc(S(=O)(=O)N(C)c2ccc3c(c2)OC(CN[C@H](C)c2ccccc2)CC3)cc1OC (stereo partly drawn) [Example 54, 3,4-dimethoxy-N-methyl-N-[2-({[(1R)-1-phenylethyl]amino}methyl)-3,4-dihydro-2H-chromen-7-yl]benzenesulfonamide] | 11 nM
C[C@@H](NCC1CCc2ccc(N(C)S(=O)(=O)c3cccc4ccccc34)cc2O1)c1ccccc1 (stereo partly drawn) [Example 55, N-methyl-N-[2-({[(1R)-1-phenylethyl]amino}methyl)-3,4-dihydro-2H-chromen-7-yl]naphthalene-1-sulfonamide] | 4 nM
C[C@@H](NCC1CCc2ccc(N(C)S(=O)(=O)c3ccc(N)cc3)cc2O1)c1ccccc1 (stereo partly drawn) [Example 56, 4-amino-N-methyl-N-[2-({[(1R)-1-phenylethyl]amino}methyl)-3,4-dihydro-2H-chromen-7-yl]benzenesulfonamide] | 4 nM
